Measurements taken from PMC9436958, “The synthesis of novel thioderivative chalcones and their influence on NF-κB, STAT3 and NRF2 signaling pathways in colorectal cancer cells” (Scientific Reports, 2022).

Tests used:
[1] = tested on: AKT; parameters: method as in BinidngDB; details: inhibitor of PDB ID 4GV1; ref BinidngDB; cited from earlier work
[2] = tested on: Nrf2; experiment: Transcription factor ELISA, Nrf2 binding to DNA; assay type: cell-based
Description: (§1) To estimate NF-ΚB (p50 and p65 subunits) STAT3 and Nrf2 activation, enzymatic immunoassays with the Transcription Factor ELISA Kit (TransAM™NF-κB, TransAM™STAT3/TransAM™Nrf2, Active Motif, Carlsbad CA, USA) were used following the manufacturer’s protocol. Briefly, proper consensus-site double-strand oligonucleotides (NF-κB—5′-GGGACTTTCC-3′; STAT3-5’—TTCCCGGAA-3’; Nrf2-5ʹ—[…]-3ʹ) were immobilized on an ELISA plate and incubated for one hour with the nuclear extracts. The activated subunits bound to DNA were recognized with a specific primary antibody and detected with an HRP-conjugated secondary antibody. The number of subunits was determined by spectrophotometry at λ = 450 nm. The number of p50, and p65 subunits, STAT3, as well as the amount of Nrf2 contained in the DNA-binding complex, corresponded to the activated NF-κB, STAT3, or Nrf2 transcription factors.

[3] = tested on: NF-κB p65; experiment: Transcription factor ELISA, NF-κB p65 binding to DNA; assay type: cell-based; details: DLD-1 cells (context); 1, 4 at 1 μM; 2, 8 at 5 μM; vs control
Description: as §1

[4] = tested on: HCT116 cells; experiment: MTT viability assay, HCT116 cells; assay type: cell-based; details: Homo sapiens, HCT-116, range 0.5–100 µM, read-out: IC50, cytotoxicity
Description: (§2) The DLD-1 and HCT116 colorectal carcinoma cell lines were purchased from ECACC. The HaCaT cell line of spontaneously immortalized keratinocytes was purchased from Cell Lines Service (Germany). The cells were cultured in Dulbecco’s Modified Eagle’s Medium (DMEM, Sigma-Aldrich, USA) with the addition of 10% FBS (EURx, Poland) and 1% antibiotic solution (penicillin and streptomycin) (Sigma-Aldrich, USA) at 37 °C in an atmosphere with 95% humidity and 5% CO2.
(§3) The effect of the tested compounds on the viability of DLD-1, HCT116 and HaCaT cells was assessed by the MTT assay according to the standard protocol.

[5] = tested on: NF-κB p65; experiment: qRT-PCR, NF-κB p65 mRNA; assay type: cell-based; details: for inhibitory effect on p65 subunit transcription: DLD-1 cells, 5 μM
Description: (§4) Total RNA from cells was isolated with the GeneMatrix Universal DNA/RNA/Protein Purification Kit (EurX, Poland). For the qRT-PCR analyses, the Maxima SYBR Green I/ROX qPCR Master Mix (2×) (Thermo Fisher Scientific, USA) and the thermal cycler LightCycler (Roche, Germany) were used. The protocol started with 5 min of enzyme activation at 95 °C, followed by 40–50 cycles at 95 °C for 15 s, 56 °C for 20 s, 72 °C for 40 s, and final elongation at 72 °C for 5 min. Melting curve analysis was used for amplicon verification. The expression levels of TATA-box-binding protein (TBP) and porphobilinogen deaminase (PBGD) were used to normalize the data. The Pfaffl comparative method was used to calculate fold change. Primers were designed using Beacon Designer software (the sequences of primers used to analyze genes are listed in Table 2 of the supplementary materials).

[6] = tested on: DLD-1 cells; experiment: MTT viability assay, DLD-1 cells; assay type: cell-based; details: Homo sapiens, range 0.5–100 µM, read-out: IC50, cytotoxicity
Description: as §2, §3

[7] = MTT viability assay, normal HaCaT cells; assay type: cell-based; details: HaCaT cells (spontaneously immortalized keratinocytes), normal human HaCaT cells, read-out: IC50, cytotoxicity
Description: as §2, §3

[8] = tested on: COX-2; experiment: COX-2 expression (qRT-PCR mRNA, Western blot protein); assay type: cell-based; details: 4 at 1 μM; for COX-2 transcription: DLD-1 cells, 3, 6 at 5 μM
Description: (§5) Cytosolic and nuclear extracts were prepared using a Nuclear/Cytosol Fractionation Kit (BioVision Research, USA). Cytosolic extracts (for NF-κBp65, NF-κBp50, COX-2, iNOS, STAT3, c-Myc, Bcl-xl, Nrf2, SOD, GSTP, EGFR, Akt, p-Akt, Keap1, IKKα/β and β-actin) or nuclear extracts (for NF-κBp65, NF-κBp50, STAT3, p-STAT3, Nrf2, p-Nrf2 and lamin) were separated on 7.5%, 10% or 12% SDS–PAGE slab gels. Then, the proteins were transferred to a nitrocellulose Immobilon-P membrane. After blocking for 2 h with 10% skimmed milk, proteins were incubated with primary antibodies against NF-κBp65, NF-κBp50, COX-2, iNOS, STAT3, p-STAT3, c-Myc, Bcl-xl, Nrf2, p-Nrf2, SOD, GSTP, EGFR, Akt, p-Akt, Keap1, IKKα/β, β-actin, and lamin. Alkaline phosphatase (AP)-labeled anti-rabbit IgG, anti-goat IgG, and anti-mouse IgG secondary antibodies (Bio-Rad Laboratories, USA), as well as horseradish peroxidase (HRP)-conjugated anti-mouse IgG (Boster Bio, USA) secondary antibodies were used in the staining reaction. Bands were visualized by the AP Conjugate Substrate Kit NBT/BCIP or the chemiluminescent HRP substrate of the Clarity ECL Kit (Bio–Rad Laboratories, USA). The amount of immunoreactive product in each lane was determined using a ChemiDoc Imaging System (Bio–Rad Laboratories, USA). Values were calculated as relative absorbance units (RQ) per mg of protein and expressed as a percentage of the control.
as §4

[9] = tested on: STAT3; experiment: Transcription factor ELISA, STAT3 binding to DNA; assay type: cell-based; details: 2, 5 at 5 μM, 4 at 1 μM
Description: as §1

[10] = tested on: STAT3; experiment: qRT-PCR, STAT3 mRNA; assay type: cell-based; details: DLD-1 cells; 2, 5 at 5 μM, 4 at 1 μM
Description: as §4

[11] = tested on: EGFR; experiment: Western blot, EGFR protein in cytosolic fraction; assay type: cell-based; details: DLD-1 cells; 2, 5 at 5 μM, 4 at 1 μM
Description: as §5

[12] = tested on: p-Akt; experiment: Western blot, p-Akt (Ser 473) protein in cytosolic fraction; assay type: cell-based; details: 2, 5 at 5 μM, 4 at 1 μM
Description: as §5

[13] = tested on: Bcl-xl; experiment: Bcl-xl expression (qRT-PCR mRNA, Western blot protein); assay type: cell-based; details: DLD-1 cells; 2 at 5 μM
Description: as §5, §4

[14] = tested on: STAT3; experiment: Western blot, STAT3 protein level; assay type: cell-based; details: DLD-1 cells; 2 at 5 μM, 4 at 1 μM
Description: as §5

[15] = tested on: c-Myc; experiment: c-Myc expression (qRT-PCR mRNA, Western blot protein); assay type: cell-based; details: DLD-1 cells; 2 at 5 μM
Description: as §5, with “control. […]” for “control.”

[16] = tested on: EGFR; parameters: method as in BinidngDB; details: inhibitor of PDB ID 5UGB; ref BinidngDB; cited from earlier work
[17] = tested on: SOD; experiment: SOD expression (qRT-PCR mRNA, Western blot protein); assay type: cell-based; details: HCT116 cells; 5 μM
Description: as §5
as §4, with “Primers were designed using Beacon Designer software (the sequences of primers used to analyze genes are listed in Table 2 of the supplementary materials).” left out

[18] = tested on: p-Nrf2; experiment: Western blot, p-Nrf2 protein in nuclear fraction; assay type: cell-based; details: HCT116 line; 5 μM
Description: as §5

[19] = tested on: NF-κB p50; experiment: Transcription factor ELISA, NF-κB p50 binding to DNA; assay type: cell-based; details: DLD-1 cells; 1, 4 at 1 μM; 2, 3, 5-8 at 5 μM; in relation to the control group
Description: as §1

[20] = DLD-1 cells, 1 at 1 μM, 3, 5, 7, 8 at 5 μM
[21] = HCT116 cells, 4 at 1 μM, 2, 5, 6, 7 at 5 μM

Row | Nrf2 binding to a specific nucleotide sequence (ELISA) [2, 20] | Nrf2 binding to a specific nucleotide sequence (ELISA) [2, 21] | SMILES | reduction of the binding of the p65 subunit to DNA [3] | IC50 [4] | IC50 [6] | IC50 [7] | other results
1 |  |  | NC1(C(=O)N[C@@H](CCO)c2ccc(Cl)cc2)CCN(c2ncnc3[nH]ccc23)CC1 [AZD5363] |  |  |  |  | IC50 [1]: 0.0042 µM
2 | statistically significant increase |  | COc1ccc(/C=C/C(=O)c2cc(OC)c(SC)c(OC)c2)cc1SC [chalcone 8] | 38% | 19 µM | 9 µM | 17 µM | decrease of p65 transcription ([5]; HCT116 cells, 8 at 5 μM, compared to the control group): 30%
3 | statistically significant increase |  | COc1ccc(/C=C/C(=O)c2cc(Br)c(OC)c(OC)c2)cc1SC [chalcone 3] |  | 17 µM | 8 µM | 9 µM | COX-2 transcription [8]: statistically significant reduction
4 |  | statistically significant increase | COc1cc(/C=C/C(=O)c2cc(Br)c(OC)c(OC)c2)ccc1SC [chalcone 2] | 24% | 18 µM | 11 µM | 13 µM | binding of STAT3 to DNA ([9]; HCT116 cells): decreased the binding of STAT3 to DNA; decrease in the binding of STAT3 to DNA ([9]; nuclear fraction of DLD-1 cells): 25%; STAT3 gene expression (mRNA) [10]: decreased; level of EGFR [11]: significantly decreased the level of EGFR; phosphorylation of p-Akt (Ser 473) ([12]; DLD-1 cells): significantly reduced phosphorylation of p-Akt; phosphorylation of p-Akt (Ser 473) ([12]; HCT116 cells): significantly reduced phosphorylation of p-Akt; Bcl-xl protein level [13]: reduced level of the Bcl-xl protein; decrease in the level of Bcl-xl mRNA [13]: 25%; COX-2 expression, protein level ([8]; HCT116 cells, 2 at 5 μM): reduction of COX-2 expression; COX-2 expression, transcript level ([8]; HCT116 cells, 2 at 5 μM): reduction of COX-2 expression; inhibitory effect on p65 subunit transcription [5]: most potent inhibitory effect; decrease in the nuclear level of STAT3 protein [14]: 22%; c-Myc expression [15]: decreased c-Myc expression
5 | statistically significant increase |  | COc1ccc(/C=C/C(=O)c2cc(OC)c(OC)c(OC)c2)cc1SC [chalcone 1] | 21% | 19 µM | 3 µM | 4 µM | 
7 |  | statistically significant increase | COc1ccc(/C=C/C(=O)c2cc(Br)c(SC)c(OC)c2)cc1SC [chalcone 6] |  | 21 µM | 12 µM | 13 µM | levels of SOD mRNA and protein [17]: increased levels of SOD mRNA and protein; increase in the nuclear level of p-Nrf2 [18]: 52%; COX-2 transcription [8]: statistically significant reduction
8 | statistically significant increase | statistically significant increase | COc1cc(C(=O)/C=C/c2ccc(SC)cc2)cc(Br)c1SC [chalcone 7] |  | 19 µM | 43 µM | 27 µM | decrease of p50 binding to the 5'-GGGACTTTCC-3' target sequence [19]: 41%; levels of SOD mRNA and protein [17]: increased levels of SOD mRNA and protein; increase in the nuclear level of p-Nrf2 [18]: 80%; inhibitory effect on p65 subunit transcription [5]: most potent inhibitory effect
